The results in this text go back to BindingDB's records for doi:10.3109/14756366.2012.681653 (Atatürk University, 2013).

SMILES strings stand for the structures. Structures can show the parent of a compound that is named as a salt.

Serum paraoxonase/arylesterase 1, sequence (P27169 whole entry): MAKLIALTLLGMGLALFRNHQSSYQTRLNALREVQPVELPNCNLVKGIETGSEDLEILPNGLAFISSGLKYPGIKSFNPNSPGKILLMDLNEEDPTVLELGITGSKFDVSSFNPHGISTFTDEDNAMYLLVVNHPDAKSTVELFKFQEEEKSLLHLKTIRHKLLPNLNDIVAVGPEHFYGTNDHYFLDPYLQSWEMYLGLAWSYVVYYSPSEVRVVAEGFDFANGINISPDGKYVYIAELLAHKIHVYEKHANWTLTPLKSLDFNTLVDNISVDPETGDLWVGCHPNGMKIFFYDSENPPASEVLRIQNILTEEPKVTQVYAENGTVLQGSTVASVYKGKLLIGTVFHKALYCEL

The test deals with Serum paraoxonase/arylesterase 1 (Homo sapiens, UniProt P27169). In words: PON Activity Assay. Here is the method:
PON activities were measured in the presence of different drug concentrations. Control activity was assumed to be 100% in the absence of inhibitor. Experiments of all compounds were tested in triplicate at each concentration used and Activity%-[Drug] graphs were drawn for each drug. Determination of Ki values was performed by using three different inhibitor concentrations. In these experiments, paraoxone was used as substrate at five different concentrations (0.15, 0.3, 0.45, 0.6, and 0.75 mM).
Compound `CCC[C@@H]1C[C@@H](C(=O)N[C@@H]([C@H]2O[C@H](SC)[C@H](O)[C@@H](O)[C@H]2O)[C@@H](C)O)N(C)C1` [(2S,4R)-N-((1R,2R)-2-hydroxy-1-((2R,3R,4S,5R,6R)-3,4,5-trihydroxy-6-(methylthio)-tetrahydro-2H-pyran-2-yl)propyl)-1-methyl-4-propylpyrrolidine-2-carboxamide] registered a Ki of 18.3 mM. The result for `CCC[C@@H]1C[C@@H](C(=O)N[C@@H]([C@H]2O[C@H](SC)[C@H](OP(=O)(O)O)[C@@H](O)[C@H]2O)[C@H](C)Cl)N(C)C1` [Clindamycin phosphate] reads 35.8 mM; that for `CCN[C@@H]1C[C@H](N)[C@H](O[C@H]2OC(CN)=CC[C@H]2N)[C@H](O)[C@H]1O[C@H]1OC[C@](C)(O)[C@H](NC)[C@H]1O` [Netilmycin sulfate], 3.73 mM. The result for `CN(C)[C@@H]1C(=O)C(C(N)=O)=C(O)[C@@]2(O)C(=O)C3=C(O)c4c(O)cccc4[C@@](C)(O)[C@H]3[C@H](O)[C@@H]12` [Oxytetracycline hydrochloride] reads 0.2 mM; that for `CN[C@H]1[C@@H](O[C@@H]2[C@@H](O[C@H]3[C@H](O)[C@@H](O)[C@H](N=C(N)N)[C@@H](O)[C@@H]3N=C(N)N)O[C@H](C)[C@@]2(O)C=O)O[C@H](CO)[C@@H](O)[C@@H]1O` [Streptomycin sulfate], 56.3 mM.
